In this assay the target is ATX (human His-tagged) (Homo sapiens (Human), UniProt Q13822). Put plainly: Human ATX enzyme inhibition assay (fluorescence quenching, MR121 substrate). The settings on record: 30 nM ATX, 1 μM MR121 substrate, 30° C., pH 8.0. Type of assay: biochemical. In a few lines: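 Fluorescence quenching assay with MR121/tryptophan-labelled substrate analogue in Tris-HCl buffer (140 mM NaCl, CaCl2, MgCl2, 0.01% Triton X-100, pH 8.0). Serially diluted compounds were preincubated 15 min at 30 °C with 30 nM ATX (final), then 1 µM substrate (final) added and incubated 15 min at 30 °C.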

Broadly, the IC50 is the concentration that gives 50% inhibition. As to `CC(C)Cn1c(C(=O)N2C[C@@H]3[C@H]4CN(C(=O)c5ccc6[nH]nnc6c5)C[C@H]4[C@@H]3C2)cc2ccccc21` [Example 1.037, [(3aR,3bS,6aR,6bS)-5-(1H-benzotriazole-5-carbonyl)-octahydro-cyclobuta[1,2-c;3,4-c′]dipyrrol-2-yl]-(1-isobutyl-1H-indol-2-yl)-methanone], the IC50 is 159 nM. As for `O=C(c1ccc2ccc(-c3ccccc3)cc2c1)N1C[C@@H]2[C@H](C1)[C@H]1CN(C(=O)c3ccc4[nH]nnc4c3)C[C@@H]21` [Example 1.050, [(3aS,3bS,6aR,6bR)-5-(1H-benzotriazole-5-carbonyl)-octahydro-cyclobuta[1,2-c;3,4-c′]dipyrrol-2-yl]-(7-phenyl-naphthalen-2-yl)-methanone], the figure is 8 nM; as for `Cn1c(C(=O)N2C[C@@H]3[C@H]4CN(C(=O)c5ccc6[nH]nnc6c5)C[C@H]4[C@@H]3C2)cc2ccccc21` [Example 1.024, [(3aR,3bS,6aR,6bS)-5-(1H-benzotriazole-5-carbonyl)-octahydro-cyclobuta[1,2-c;3,4-c′]dipyrrol-2-yl]-(1-methyl-1H-indol-2-yl)-methanone], 377 nM. As for `O=C(OCc1ccc(OC(F)(F)F)cc1)N1C[C@@H]2[C@H](C1)[C@H]1CN(C(=O)c3ccc4[nH]nnc4c3)C[C@@H]21` [Example 2, (3aR,3bS,6aR,6bS)-5-(1H-Benzotriazole-5-carbonyl)-octahydro-cyclobuta[1,2-c;3,4-c′]dipyrrole-2-carboxylic acid 4-trifluoromethoxy-benzyl Ester], the figure is 14 nM. As for `COCCCN1CC(C(=O)N2C[C@@H]3[C@H]4CN(C(=O)c5ccc6[nH]nnc6c5)C[C@H]4[C@@H]3C2)Cc2ccccc21` (stereo partly drawn) [Example 1.056, [(3aS,3bR,6aS,6bR)-5-(1H-benzotriazole-5-carbonyl)-octahydro-cyclobuta[1,2-c;3,4-c′]dipyrrol-2-ylH1-(3-methoxy-propyl)-1,2,3,4-tetrahydro-quinolin-3-yl]-methanone], the figure is 29 nM. `CCOc1nc(C(=O)N2C[C@@H]3[C@H]4CN(C(=O)c5ccc6[nH]nnc6c5)C[C@H]4[C@@H]3C2)cc2ccccc12` [Example 1.073, [(3aR,3bS,6aR,6bS)-5-(1H-benzotriazole-5-carbonyl)-octahydro-cyclobuta[1,2-c;3,4-c′]dipyrrol-2-yl]-(1-ethoxy-isoquinolin-3-yl)-methanone] showed an IC50 of 3.5 nM. As for `O=C(c1cc2ccc(OC(F)(F)F)cc2[nH]1)N1C[C@@H]2[C@H](C1)[C@H]1CN(C(=O)[C@@H]3CCc4[nH]nnc4C3)C[C@@H]21` [Example 1.020, [(3aR,3bS,6aR,6bS)-5-((R)-4,5,6,7-tetrahydro-1H-benzotriazole-5-carbonyl)-octahydro-cyclobuta[1,2-c;3,4-c′]dipyrrol-2-yl]-(6-trifluoromethoxy-1H-indol-2-yl)-methanone], the figure is 6 nM; as for `O=C(c1ccc2[nH]nnc2c1)N1C[C@@H]2[C@H](C1)[C@H]1CN(C(=O)c3cc4ccccc4c(OCC(F)(F)F)n3)C[C@@H]21` [Example 1.060, [(3aR,3bS,6aR,6bS)-5-(1H-benzotriazole-5-carbonyl)-octahydro-cyclobuta[1,2-c;3,4-c′]dipyrrol-2-yl]-[1-(2,2,2-trifluoro-ethoxy)-isoquinolin-3-yl]-methanone], 4.7 nM. For `O=C(c1ccc2[nH]nnc2c1)N1C[C@@H]2[C@H](C1)[C@H]1CN(C(=O)c3cc4ccc(OC(F)(F)F)cc4[nH]3)C[C@@H]21` [Example 1.011, [(3aR,3bS,6aR,6bS)-5-(1H-benzotriazole-5-carbonyl)-octahydro-cyclobuta[1,2-c;3,4-c′]dipyrrol-2-yl]-(6-trifluoromethoxy-1H-indol-2-yl)-methanone] the value was 8 nM; for `O=C(c1cc2cc(OC(F)(F)F)ccc2[nH]1)N1C[C@@H]2[C@H](C1)[C@H]1CN(C(=O)[C@@H]3CCc4[nH]nnc4C3)C[C@@H]21` [Example 1.019, [(3aR,3bS,6aR,6bS)-5-((R)-4,5,6,7-tetrahydro-1H-benzotriazole-5-carbonyl)-octahydro-cyclobuta[1,2-c;3,4-c′]dipyrrol-2-yl]-(5-trifluoromethoxy-1H-indol-2-yl)-methanone], 11.5 nM; for `COc1c(C(=O)N2C[C@@H]3[C@H]4CN(C(=O)c5ccc6[nH]nnc6c5)C[C@H]4[C@@H]3C2)ccc2ccccc12` [Example 1.022, [(3aS,3bS,6aR,6bR)-5-(1H-benzotriazole-5-carbonyl)-octahydro-cyclobuta[1,2-c;3,4-c′]dipyrrol-2-yl]-(1-methoxy-naphthalen-2-yl)-methanone], 155 nM. For `CCOc1cc(C(=O)N2C[C@@H]3[C@H](C2)[C@H]2CN(C(=O)c4ccc5[nH]nnc5c4F)C[C@@H]32)nc2ccccc12` [Example 1.110, [(3aS,3bR,6aS,6bR)-5-(4-ethoxy-quinoline-2-carbonyl)-octahydro-cyclobuta[1,2-c;3,4-c′]dipyrrol-2-yl]-(4-fluoro-1H-benzotriazol-5-yl)-methanone] the value was 32.5 nM; for `Cc1ccc(C(=O)N2C[C@@H]3[C@H](C2)[C@H]2CN(C(=O)c4ccc(OCC5CC5)nn4)C[C@@H]32)cc1C` [Example 1.102, [(3aS,3bR,6aS,6bR)-5-(6-cyclopropylmethoxy-pyridazine-3-carbonyl)-octahydro-cyclobuta[1,2-c;3,4-c′]dipyrrol-2-yl]-(3,4-dimethyl-phenyl)-methanone], 992 nM.

`O=C(c1ccc2[nH]nnc2c1)N1C[C@@H]2[C@H](C1)[C@H]1CN(C(=O)c3ccc4c(c3)[nH]c3ccc(Cl)cc34)C[C@@H]21` [Example 1.068, [(3aS,3bS,6aR,6bR)-5-(1H-benzotriazole-5-carbonyl)-octahydro-cyclobuta[1,2-c;3,4-c′]dipyrrol-2-yl]-(6-chloro-9H-carbazol-2-yl)-methanone] yielded an IC50 of 14.3 nM. The compound `COCCOc1cc(C(=O)N2C[C@@H]3[C@H]4CN(C(=O)c5ccc6[nH]nnc6c5)C[C@H]4[C@@H]3C2)nc2ccccc12` [Example 1.069, [(3aR,3bS,6aR,6bS)-5-(1H-benzotriazole-5-carbonyl)-octahydro-cyclobuta[1,2-c;3,4-c′]dipyrrol-2-yl]-[4-(2-methoxy-ethoxy)-quinolin-2-yl]-methanone] gave an IC50 of 8 nM.

Turning to `O=C(c1ccc2c(c1)CCCC2)N1C[C@@H]2[C@H](C1)[C@H]1CN(C(=O)c3ccc4[nH]nnc4c3)C[C@@H]21` [Example 1.054, [(3aS,3bS,6aR,6bR)-5-(1H-benzotriazole-5-carbonyl)-octahydro-cyclobuta[1,2-c;3,4-c′]dipyrrol-2-yl]-(5,6,7,8-tetrahydro-naphthalen-2-yl)-methanone], the IC50 was determined as 59.2 nM. As for `O=C(CCc1ccc(OC(F)(F)F)cc1)N1C[C@@H]2[C@H](C1)[C@H]1CN(C(=O)c3ccc4[nH]nnc4c3)C[C@@H]21` [Example 1.001, 1-[(3aS,3bR,6aS,6bR)-5-(1H-benzotriazole-5-carbonyl)-octahydro-cyclobuta[1,2-c;3,4-c′]dipyrrol-2-yl]-3-(4-trifluoromethoxy-phenyl)-propan-1-one], the figure is 11 nM; as for `O=C(c1ccc2[nH]nnc2c1)N1CC2C(C1)C1CN(C(=O)c3cc(OCC(F)(F)F)c(C4CC4)nn3)CC21` (stereo not drawn) [Example 1.095], 32 nM.
